Activity calls are given as the source filed them.
Tests used:
[1] = molecular target: T1, Zinc finger protein mex-5 (Caenorhabditis elegans, UniProt Q9XUB2); assay: MEX-5/TCR-2 RNA interaction inhibitors, dose response, biochemical, C. elegans, fluorescence polarization (AID 1960)
T1 sequence (Q9XUB2 whole entry): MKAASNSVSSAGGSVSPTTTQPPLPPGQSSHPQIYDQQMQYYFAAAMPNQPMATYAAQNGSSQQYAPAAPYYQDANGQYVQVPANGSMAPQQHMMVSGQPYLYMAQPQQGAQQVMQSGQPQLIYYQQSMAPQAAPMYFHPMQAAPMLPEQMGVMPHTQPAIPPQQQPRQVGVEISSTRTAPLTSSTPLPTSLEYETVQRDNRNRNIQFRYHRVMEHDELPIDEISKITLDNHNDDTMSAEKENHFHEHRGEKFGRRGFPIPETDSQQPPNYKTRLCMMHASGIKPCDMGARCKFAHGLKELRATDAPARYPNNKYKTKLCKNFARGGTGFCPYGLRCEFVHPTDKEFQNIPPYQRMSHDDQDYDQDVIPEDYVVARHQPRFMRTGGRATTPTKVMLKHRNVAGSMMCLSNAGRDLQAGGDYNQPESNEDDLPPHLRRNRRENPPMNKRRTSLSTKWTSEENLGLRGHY

[2] = molecular target: T2, RNA-binding protein pos-1 (Caenorhabditis elegans, UniProt G5EF15); assay: inhibitors of POS-1/mex-3 RNA binding, dose response, biochemical, fluorescence polarization (AID 1964);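 further: purified POS-1 fused to maltose binding protein made in E. coli; potency of compounds blocking POS-1 binding to fluorescent RNA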
T2 sequence (G5EF15 whole entry): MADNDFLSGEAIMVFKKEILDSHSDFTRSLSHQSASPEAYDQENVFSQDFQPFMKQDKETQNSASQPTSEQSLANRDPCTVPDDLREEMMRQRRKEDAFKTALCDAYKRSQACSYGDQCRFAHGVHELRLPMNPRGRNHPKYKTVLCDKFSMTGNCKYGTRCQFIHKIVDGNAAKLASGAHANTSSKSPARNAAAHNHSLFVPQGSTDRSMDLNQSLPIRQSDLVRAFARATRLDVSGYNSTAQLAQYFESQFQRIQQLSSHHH

[3] = molecular target: DNA dC->dU-editing enzyme APOBEC-3A (Homo sapiens, UniProt P31941); assay: Dose Response confirmation of small molecule APOBEC3A DNA Deaminase Inhibitors via a fluorescence-based single-stranded DNA deaminase assay. [Related pubchem assays (depositor defined):AID493011, AID493024]; type: functional
[4] = molecular target: DNA dC->dU-editing enzyme APOBEC-3G (Homo sapiens, UniProt Q9HC16); type: functional;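 further: Dose-response counterscreen measuring inhibition of APOBEC3G DNA deaminase activity, run while confirming APOBEC3A inhibitors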
[5] = molecular target: G-protein coupled receptor 55 (Homo sapiens, UniProt Q9Y2T6); assay: GPR55 antagonists blocking LPI-driven arrestin recruitment, primary screen, imaging, U2OS, beta-arrestin-GFP, LPI agonist (AID 2013); type: functional;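 further: antagonist potency measured as reduced agonist-driven arrestin aggregation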
[6] = molecular target: Voltage-gated inwardly rectifying potassium channel KCNH2 (Homo sapiens, UniProt Q12809); conditions: Potency;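 further: confirmatory quantitative high-throughput screen measuring inhibition of hERG channel activity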
[7] = molecular target: T3, Carboxy-terminal domain RNA polymerase II polypeptide A small phosphatase 1 (Homo sapiens, UniProt Q9GZU7); assay: inhibitors of CTDSP1, concentration-response testing, biochemical assay, absorbance-based, actives from ultra-high-throughput screening (AID 540297); type: functional
T3 sequence (Q9GZU7 whole entry): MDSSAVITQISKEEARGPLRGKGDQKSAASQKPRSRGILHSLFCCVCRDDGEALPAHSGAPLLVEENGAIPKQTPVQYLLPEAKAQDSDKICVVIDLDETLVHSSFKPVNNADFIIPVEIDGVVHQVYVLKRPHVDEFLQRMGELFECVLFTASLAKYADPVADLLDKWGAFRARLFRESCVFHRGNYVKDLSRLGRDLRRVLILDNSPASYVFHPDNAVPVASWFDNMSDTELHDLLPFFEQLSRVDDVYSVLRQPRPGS

[8] = Luminescence Cell-Based Dose Retest to Confirm Inhibitors of Cancer Stem Cells. [Related pubchem assays (depositor defined):AID2717, AID2721]; type: functional; conditions: Homo sapiens
Vero = assay: cells; type: functional; conditions: Chlorocebus sabaeus
HEK293 [9] = assay: cells; type: functional, cell-based; conditions: Homo sapiens
[10] = molecular target: T4, Nuclear receptor subfamily 0 group B member 1 (Homo sapiens, UniProt P51843); assay: Luminescence-based cell-based high throughput dose response assay for inhibitors of the orphan nuclear receptor subfamily 0, group B, member 1 (DAX1; NR0B1). [Related pubchem assays (depositor defined):AID504766, AID504790]; type: functional
T4 sequence (P51843 whole entry): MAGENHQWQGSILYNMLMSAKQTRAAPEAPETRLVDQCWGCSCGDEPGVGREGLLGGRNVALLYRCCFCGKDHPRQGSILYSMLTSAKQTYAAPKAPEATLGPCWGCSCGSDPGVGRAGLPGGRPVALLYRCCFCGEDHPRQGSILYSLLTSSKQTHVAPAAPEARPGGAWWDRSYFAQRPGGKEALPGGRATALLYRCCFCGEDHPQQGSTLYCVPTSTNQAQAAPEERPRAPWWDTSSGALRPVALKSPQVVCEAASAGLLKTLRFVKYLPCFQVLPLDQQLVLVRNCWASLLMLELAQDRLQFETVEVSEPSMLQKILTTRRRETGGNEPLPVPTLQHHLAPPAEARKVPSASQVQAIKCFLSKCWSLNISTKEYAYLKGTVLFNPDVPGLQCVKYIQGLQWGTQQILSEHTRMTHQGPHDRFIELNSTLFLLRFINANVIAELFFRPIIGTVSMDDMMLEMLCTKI

[11] = molecular target: T5, Rac GTPase-activating protein 1 (Homo sapiens, UniProt Q9H0H5); assay: MgcRacGAP GTPase-activating activity inhibitors, confirmation, biochemical, ADP Hunter fluorescence, primary and confirmatory (AID 624330); type: functional
T5 sequence (Q9H0H5 whole entry): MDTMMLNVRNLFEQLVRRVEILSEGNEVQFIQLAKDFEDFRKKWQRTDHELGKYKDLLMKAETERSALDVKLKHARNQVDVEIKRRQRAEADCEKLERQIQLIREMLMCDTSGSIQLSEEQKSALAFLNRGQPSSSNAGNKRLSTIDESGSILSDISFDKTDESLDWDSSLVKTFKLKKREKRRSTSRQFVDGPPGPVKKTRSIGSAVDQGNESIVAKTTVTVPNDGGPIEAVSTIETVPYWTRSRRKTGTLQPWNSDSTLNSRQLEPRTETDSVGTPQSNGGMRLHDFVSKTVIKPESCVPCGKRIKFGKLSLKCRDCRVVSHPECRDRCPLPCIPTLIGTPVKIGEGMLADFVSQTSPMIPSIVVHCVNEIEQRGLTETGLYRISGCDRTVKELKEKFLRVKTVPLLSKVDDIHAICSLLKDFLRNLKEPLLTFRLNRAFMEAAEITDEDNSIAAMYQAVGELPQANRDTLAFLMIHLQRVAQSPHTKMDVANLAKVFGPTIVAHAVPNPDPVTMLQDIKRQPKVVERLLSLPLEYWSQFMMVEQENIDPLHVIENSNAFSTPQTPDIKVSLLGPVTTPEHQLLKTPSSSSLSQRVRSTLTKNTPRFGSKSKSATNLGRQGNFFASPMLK

HeLa = assay: HeLa cell cytotoxicity, dose response, cytotoxicity control, 24 h, cherry-picked samples (AID 504726); type: functional, cell-based; conditions: Homo sapiens;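 further: potency for cytotoxicity as loss of luminescence signal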
[12] = molecular target: T6, Small ubiquitin-related modifier 1 (Homo sapiens, UniProt P63165); assay: inhibitors of SUMO1 peptide binding, dose response, biochemical, fluorescence polarization, uHTS hits (AID 624382); type: functional; conditions: read-out: IC50_Mean
[13] = molecular target: T6, Small ubiquitin-related modifier 1; assay: inhibitors of SUMO1 partner interactions, dose response, biochemical, FRET (AID 624383); type: functional; conditions: read-out: IC50_Mean
Albumin = Albumin (Bos taurus, UniProt P02769); assay: Counterscreen for inhibitors of T-cell receptor (TCR)-CD3 interaction: Fluorescence-based biochemical high throughput dose response assay to identify inhibitors of T-cell receptor (TCR)-CD3 interaction using a TAMRA-labeled BSA probe.; type: functional
[14] = molecular target: T7, Alkaline phosphatase, tissue-nonspecific isozyme (Homo sapiens, UniProt P05186); assay: human TNAP enzyme inhibitors, SAR follow-up, biochemical, luminescent, dose response (AID 1056)
T7 sequence (P05186 whole entry): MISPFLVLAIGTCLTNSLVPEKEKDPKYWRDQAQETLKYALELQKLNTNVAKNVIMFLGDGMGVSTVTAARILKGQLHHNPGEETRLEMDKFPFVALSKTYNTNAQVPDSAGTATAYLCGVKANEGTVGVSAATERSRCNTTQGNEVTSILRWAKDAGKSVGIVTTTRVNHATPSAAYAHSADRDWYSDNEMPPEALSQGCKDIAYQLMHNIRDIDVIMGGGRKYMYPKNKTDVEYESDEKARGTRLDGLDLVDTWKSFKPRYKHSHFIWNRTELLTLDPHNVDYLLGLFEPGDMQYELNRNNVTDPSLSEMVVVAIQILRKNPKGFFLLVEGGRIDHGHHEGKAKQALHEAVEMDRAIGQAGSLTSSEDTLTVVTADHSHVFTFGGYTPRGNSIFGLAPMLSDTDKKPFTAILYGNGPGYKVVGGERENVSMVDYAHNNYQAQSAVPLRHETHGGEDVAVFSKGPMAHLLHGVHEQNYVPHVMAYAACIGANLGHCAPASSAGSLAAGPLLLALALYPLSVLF

[15] = molecular target: Alkaline phosphatase, placental type (Homo sapiens, UniProt P05187); assay: PLAP enzyme inhibitors, confirmation, biochemical, luminescence (AID 1512); type: functional
Nonstructural protein 1 = Nonstructural protein 1 (Influenza A virus, UniProt Q194T2); type: functional, Influenza A virus (A/California/07/2009(H1N1))
Tumor necrosis factor = Tumor necrosis factor (Homo sapiens, UniProt P01375); assay: TNFa-triggered NF-kB activation inhibitors, SAR follow-up, cell-based, revised (AID 2337); type: functional
HEK293 [16] = assay: cells; conditions: Homo sapiens
[17] = molecular target: T8, Nucleotide-binding oligomerization domain-containing protein 1 (Homo sapiens, UniProt Q9Y239); assay: NOD1 signaling inhibitors, SAR follow-up, revised (AID 2333); type: functional
T8 sequence (Q9Y239 whole entry): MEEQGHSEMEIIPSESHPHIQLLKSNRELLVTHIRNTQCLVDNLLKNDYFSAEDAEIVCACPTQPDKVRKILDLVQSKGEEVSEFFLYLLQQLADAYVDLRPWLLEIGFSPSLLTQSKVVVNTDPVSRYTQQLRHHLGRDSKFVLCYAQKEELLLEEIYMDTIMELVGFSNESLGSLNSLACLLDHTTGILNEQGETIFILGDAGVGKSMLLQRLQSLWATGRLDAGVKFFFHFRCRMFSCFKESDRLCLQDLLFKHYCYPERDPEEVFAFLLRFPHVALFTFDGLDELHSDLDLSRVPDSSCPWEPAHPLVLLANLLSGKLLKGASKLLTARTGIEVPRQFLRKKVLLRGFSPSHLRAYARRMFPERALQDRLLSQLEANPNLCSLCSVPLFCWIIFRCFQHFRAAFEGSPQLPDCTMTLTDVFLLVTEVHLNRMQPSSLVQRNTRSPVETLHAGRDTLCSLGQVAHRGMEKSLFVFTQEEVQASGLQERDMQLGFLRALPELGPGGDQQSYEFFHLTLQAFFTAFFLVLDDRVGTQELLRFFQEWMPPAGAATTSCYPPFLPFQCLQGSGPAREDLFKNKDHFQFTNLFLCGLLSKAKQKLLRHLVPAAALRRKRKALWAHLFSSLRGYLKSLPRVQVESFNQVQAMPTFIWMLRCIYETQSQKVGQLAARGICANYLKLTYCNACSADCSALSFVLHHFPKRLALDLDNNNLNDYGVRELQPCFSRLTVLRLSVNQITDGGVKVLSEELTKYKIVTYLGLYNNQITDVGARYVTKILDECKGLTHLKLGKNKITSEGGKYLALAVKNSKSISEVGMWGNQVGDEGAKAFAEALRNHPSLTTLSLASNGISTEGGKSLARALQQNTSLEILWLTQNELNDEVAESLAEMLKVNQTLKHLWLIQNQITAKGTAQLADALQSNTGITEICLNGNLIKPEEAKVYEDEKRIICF

T6 sequence (P63165 whole entry): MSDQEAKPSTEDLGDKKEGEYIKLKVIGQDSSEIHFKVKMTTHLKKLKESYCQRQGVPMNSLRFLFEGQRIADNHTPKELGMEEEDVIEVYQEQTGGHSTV
Chain of Alkaline phosphatase, placental type (P05187 whole entry): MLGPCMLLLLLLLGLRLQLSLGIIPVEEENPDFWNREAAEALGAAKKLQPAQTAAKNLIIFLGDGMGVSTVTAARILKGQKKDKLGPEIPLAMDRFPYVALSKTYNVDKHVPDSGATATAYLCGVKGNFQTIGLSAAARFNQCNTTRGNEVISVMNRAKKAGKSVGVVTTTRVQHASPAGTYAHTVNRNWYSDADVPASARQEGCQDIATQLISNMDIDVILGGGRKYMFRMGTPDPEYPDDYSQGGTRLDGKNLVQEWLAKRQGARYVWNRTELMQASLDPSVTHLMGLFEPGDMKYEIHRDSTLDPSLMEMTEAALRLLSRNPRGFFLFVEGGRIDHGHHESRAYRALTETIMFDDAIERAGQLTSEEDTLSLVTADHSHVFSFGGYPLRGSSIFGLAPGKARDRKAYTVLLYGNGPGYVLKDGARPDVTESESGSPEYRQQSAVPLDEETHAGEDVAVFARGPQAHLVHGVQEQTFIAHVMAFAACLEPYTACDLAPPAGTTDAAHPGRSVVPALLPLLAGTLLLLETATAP
Chain of G-protein coupled receptor 55 (Q9Y2T6 whole entry): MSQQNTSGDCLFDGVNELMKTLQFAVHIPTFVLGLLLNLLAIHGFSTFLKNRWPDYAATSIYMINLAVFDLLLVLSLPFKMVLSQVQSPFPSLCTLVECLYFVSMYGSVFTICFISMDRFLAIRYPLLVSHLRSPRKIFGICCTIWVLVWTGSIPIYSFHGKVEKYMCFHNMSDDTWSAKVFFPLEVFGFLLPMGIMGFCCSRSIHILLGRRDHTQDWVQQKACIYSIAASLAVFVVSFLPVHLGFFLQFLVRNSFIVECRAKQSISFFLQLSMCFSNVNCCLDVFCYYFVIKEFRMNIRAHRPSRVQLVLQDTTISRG
Chain of Tumor necrosis factor (P01375 whole entry): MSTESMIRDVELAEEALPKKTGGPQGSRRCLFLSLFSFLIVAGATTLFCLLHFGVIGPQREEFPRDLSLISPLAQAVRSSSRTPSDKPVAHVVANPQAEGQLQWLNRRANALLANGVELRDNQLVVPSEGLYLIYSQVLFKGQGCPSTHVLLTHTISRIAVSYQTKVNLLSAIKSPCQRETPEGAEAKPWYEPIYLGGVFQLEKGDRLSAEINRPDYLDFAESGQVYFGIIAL
Chain of Nonstructural protein 1 (Q194T2 whole entry): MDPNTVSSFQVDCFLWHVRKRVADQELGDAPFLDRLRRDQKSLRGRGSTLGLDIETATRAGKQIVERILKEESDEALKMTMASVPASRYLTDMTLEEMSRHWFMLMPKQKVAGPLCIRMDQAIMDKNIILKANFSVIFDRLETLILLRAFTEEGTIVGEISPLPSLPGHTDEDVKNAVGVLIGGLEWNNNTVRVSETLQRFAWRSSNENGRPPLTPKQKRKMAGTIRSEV
Chain of Albumin (P02769 whole entry): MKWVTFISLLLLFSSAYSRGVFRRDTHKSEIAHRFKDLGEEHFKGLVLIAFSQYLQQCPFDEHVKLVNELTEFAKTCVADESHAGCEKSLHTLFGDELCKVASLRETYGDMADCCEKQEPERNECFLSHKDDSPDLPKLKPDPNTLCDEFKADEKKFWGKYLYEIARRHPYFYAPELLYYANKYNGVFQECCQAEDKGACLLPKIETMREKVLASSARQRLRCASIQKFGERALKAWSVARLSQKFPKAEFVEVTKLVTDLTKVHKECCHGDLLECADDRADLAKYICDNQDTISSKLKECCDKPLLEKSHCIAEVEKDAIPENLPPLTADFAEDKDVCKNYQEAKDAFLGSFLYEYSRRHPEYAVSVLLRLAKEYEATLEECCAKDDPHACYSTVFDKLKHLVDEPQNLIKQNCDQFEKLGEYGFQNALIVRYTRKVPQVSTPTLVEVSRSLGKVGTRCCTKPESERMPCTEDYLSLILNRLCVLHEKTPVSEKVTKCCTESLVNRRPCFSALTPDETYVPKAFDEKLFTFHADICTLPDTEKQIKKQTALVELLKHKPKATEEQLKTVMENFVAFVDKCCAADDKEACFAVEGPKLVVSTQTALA
Chain of Voltage-gated inwardly rectifying potassium channel KCNH2 (Q12809 whole entry, the tested form may be a part): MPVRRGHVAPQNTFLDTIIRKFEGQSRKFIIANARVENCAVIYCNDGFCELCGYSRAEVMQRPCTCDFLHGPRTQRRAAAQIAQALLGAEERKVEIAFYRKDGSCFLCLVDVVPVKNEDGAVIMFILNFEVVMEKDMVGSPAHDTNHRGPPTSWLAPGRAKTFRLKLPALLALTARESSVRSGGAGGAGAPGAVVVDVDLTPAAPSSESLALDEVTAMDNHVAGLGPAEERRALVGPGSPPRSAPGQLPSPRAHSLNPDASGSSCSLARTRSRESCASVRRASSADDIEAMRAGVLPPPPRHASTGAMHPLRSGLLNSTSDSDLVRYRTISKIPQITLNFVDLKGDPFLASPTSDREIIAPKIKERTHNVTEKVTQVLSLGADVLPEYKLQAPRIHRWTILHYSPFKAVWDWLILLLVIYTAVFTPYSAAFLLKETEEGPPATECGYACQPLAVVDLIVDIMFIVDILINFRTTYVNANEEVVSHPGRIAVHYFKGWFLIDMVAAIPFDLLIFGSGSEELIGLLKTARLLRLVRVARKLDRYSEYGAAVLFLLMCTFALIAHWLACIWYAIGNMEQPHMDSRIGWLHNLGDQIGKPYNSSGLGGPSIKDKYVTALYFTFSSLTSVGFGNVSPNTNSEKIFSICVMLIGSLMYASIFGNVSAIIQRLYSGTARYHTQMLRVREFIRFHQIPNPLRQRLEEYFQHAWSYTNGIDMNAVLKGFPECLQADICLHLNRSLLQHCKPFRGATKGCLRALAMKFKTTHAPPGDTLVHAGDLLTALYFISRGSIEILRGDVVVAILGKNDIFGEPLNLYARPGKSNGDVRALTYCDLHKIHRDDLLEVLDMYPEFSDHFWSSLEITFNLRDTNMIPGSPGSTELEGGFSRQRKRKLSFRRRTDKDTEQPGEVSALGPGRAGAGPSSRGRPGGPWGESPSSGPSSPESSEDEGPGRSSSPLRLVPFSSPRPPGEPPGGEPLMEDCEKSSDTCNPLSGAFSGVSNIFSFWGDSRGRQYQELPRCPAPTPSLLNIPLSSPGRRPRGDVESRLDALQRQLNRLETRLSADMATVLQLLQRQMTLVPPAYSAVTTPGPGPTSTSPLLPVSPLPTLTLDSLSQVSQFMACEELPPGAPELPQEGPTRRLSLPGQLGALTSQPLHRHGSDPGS
Chain of DNA dC->dU-editing enzyme APOBEC-3A (P31941 whole entry): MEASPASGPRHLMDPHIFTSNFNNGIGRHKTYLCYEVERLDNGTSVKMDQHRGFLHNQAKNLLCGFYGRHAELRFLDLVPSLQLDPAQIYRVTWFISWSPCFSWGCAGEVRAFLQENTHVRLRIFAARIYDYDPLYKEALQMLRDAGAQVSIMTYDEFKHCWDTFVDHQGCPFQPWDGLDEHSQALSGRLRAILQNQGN
Chain of DNA dC->dU-editing enzyme APOBEC-3G (Q9HC16 whole entry): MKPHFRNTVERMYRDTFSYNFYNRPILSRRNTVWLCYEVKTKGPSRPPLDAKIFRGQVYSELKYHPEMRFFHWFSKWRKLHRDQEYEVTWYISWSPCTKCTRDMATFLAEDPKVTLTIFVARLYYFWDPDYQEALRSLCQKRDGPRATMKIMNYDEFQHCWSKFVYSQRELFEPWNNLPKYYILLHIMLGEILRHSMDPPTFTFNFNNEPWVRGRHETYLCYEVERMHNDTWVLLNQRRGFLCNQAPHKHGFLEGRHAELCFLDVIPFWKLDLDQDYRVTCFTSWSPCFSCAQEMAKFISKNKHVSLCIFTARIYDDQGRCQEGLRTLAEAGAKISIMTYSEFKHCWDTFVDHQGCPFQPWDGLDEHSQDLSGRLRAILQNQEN

COC(=O)C1=C(C)N(Cc2ccccc2)C(=NCC(C)C)N[C@H]1c1ccccc1
EC50 [1]: 42.7 µM (active)
EC50 [2]: > 300 µM (not active)
IC50 [3]: 4.65 µM (active)
IC50 [4]: 4.17 µM (active)
IC50 [5]: 1.78 µM (active)

CCCCOC(=O)c1ccccc1C(=O)OCc1ccccc1
AC50 [6]: 25.1 µM (inconclusive)

N#Cc1c(SCC(=O)Nc2cccc(F)c2)sc2c(O)cc(=O)[nH]c12
IC50 [7]: 7.26 µM (active)

O=C(Nc1ccc(Cl)cc1)c1cc2c(cc1O)[nH]c1ccccc12
AC50 [8]: 0.198 µM (active)
CC50 (Vero): 10.9 µM (active)

O=C(OCc1cc(=O)n2c(n1)sc1ccccc12)c1ccc(O)cc1
IC50 [7]: 5.75 µM (active)

COc1ccc(C(=O)N[C@H](C(=O)NCCCSc2ccccc2)C(C)C)cc1
IC50 (HEK293 [9]): > 67.5 µM (inactive)
IC50 [10]: > 67.5 µM (inactive)

CCOc1ccc(Nc2ccc(N)c(S(=O)(=O)O)c2)cc1
IC50 [11]: 68.9 µM (active)
AC50 (HeLa): 299 µM (active)
IC50 [12]: > 66.6 µM (inactive)
IC50 [7]: 3.21 µM (active)
IC50 [13]: 11.7 µM (active)
IC50 (Albumin): > 94.1 µM (inactive)

CCCCN1C(=O)/C(=N\Nc2ccccc2)c2ccccc21
IC50 [14]: 72.3 µM (active)
IC50 [15]: 18.7 µM (active)

CN1CCN(C2CCN(c3ccc(Nc4nnc(Cl)c(Nc5ccccc5S(C)(=O)=O)n4)c(OC(CF)CF)c3)CC2)CC1
IC50 (Nonstructural protein 1): > 100 µM (active)

CCOc1ccc(NC(=O)c2ccc(CCN3CCc4ccccc4C3)cc2)cc1
IC50 (Tumor necrosis factor): > 20 µM (inactive)
IC50 (HEK293 [16]): > 20 µM (inactive)
IC50 [17]: > 20 µM (inactive)

CN(C)c1ccc(NC(=O)c2ccc(CN3CCc4ccccc4C3)cc2)cc1
IC50 (Tumor necrosis factor): 1.83 µM (active)
IC50 (HEK293 [16]): > 20 µM (inactive)
IC50 [17]: 1.61 µM (active)

Cn1c(NCC(=O)c2ccc(O)c(O)c2)nc2ccccc21
IC50 [14]: 8.58 µM (active)
IC50 [15]: 7.9 µM (active)

CCOC(=O)C1=C(C)N=C(C)/C(=C(/O)OC)C1c1cccc([N+](=O)[O-])c1 (stereo not given)
IC50 [5]: 1.47 µM (active)

Source: ChEMBL document CHEMBL1201862, “PubChem BioAssay data set” (2004)
